Source: the NIST ThermoML archive (doi:10.1016/j.jct.2016.05.011)
Numbers after ± are expanded uncertainties.

How the values were obtained:
[1] = Liquid; for mass density: 293.15 K, 101.33 kPa, Vibrating tube method; for Normal boiling temperature: Ebulliometric method (Recirculating still)
[2] = refractive index (Na D-line) (dimensionless); details: 293.15 K; 101.33 kPa; Liquid; Standard Abbe refractometry

Compound | mass density [1] [kg/m3] | Normal boiling temperature [1] [°C] | refractive index [2]
CC#N [acetonitrile] | 782.1 ± 1 | 81.44 ± 0.3 | 1.3439 ± 0.0004
CO [methanol] | 791.1 ± 1 | 64.41 ± 0.3 | 1.3283 ± 0.0004
